Blank lines part the entries; values can stand above or below the molecule they belong to.
Legend:
Rattus norvegicus [1] = experiment: In vivo inhibition of Leukotriene biosynthesis in pleural inflammation rat model assessed as reduction in LTB4 level at po dosed for 1 hr followed by calcium ionophore A-23187 administration and measured after 30 mins by enzyme immunoassay; type: functional; conditions: time 1.5 hrs
[2] = Inhibition of Leukotriene biosynthesis in calcium ionophore A-23187 stimulated human PMNL cells assessed as inhibition of LTB4 formation by enzyme immunoassay; type: functional, cell-based
[3] = target: T1, Arachidonate 5-lipoxygenase-activating protein (Homo sapiens, UniProt P20292); experiment: Inhibition of FLAP in human whole blood assessed as reduction in all-trans isomers of LTB4 and 5-HETE formation preincubated with enzyme for 15 mins followed by fMLP addition and measured after 15 mins by HPLC analysis; type: tissue-based
T1 sequence (P20292 whole entry): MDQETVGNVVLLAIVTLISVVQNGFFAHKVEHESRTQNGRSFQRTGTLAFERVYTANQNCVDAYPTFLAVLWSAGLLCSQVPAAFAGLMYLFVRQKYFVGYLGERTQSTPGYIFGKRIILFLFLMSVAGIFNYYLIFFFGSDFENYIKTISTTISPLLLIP

Prostaglandin E synthase = target: T2, Prostaglandin E synthase (Homo sapiens, UniProt O14684); experiment: Inhibition of mPGES-1 activity in IL-1beta human A549 microsome using PGH2 as substrate preincubated for 15 mins followed by substrate addition for 1 min by RP-HPLC analysis; type: microsomes
T2 sequence (O14684 whole entry): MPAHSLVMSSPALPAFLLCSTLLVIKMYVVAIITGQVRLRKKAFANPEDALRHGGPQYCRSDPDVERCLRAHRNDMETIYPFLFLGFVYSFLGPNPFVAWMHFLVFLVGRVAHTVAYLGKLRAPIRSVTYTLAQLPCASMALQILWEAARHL

[4] = target: T1, Arachidonate 5-lipoxygenase-activating protein; experiment: Inhibition of FLAP in human neutrophil assessed as reduction in all-trans isomers of LTB4 and 5-HETE formation using arachidonic acid as substrate preincubated with enzyme for 15 mins followed by substrate addition and A23187 measured after 10 mins by ELISA assay; type: cell-based
[5] = target: T1, Arachidonate 5-lipoxygenase-activating protein; experiment: Inhibition of FLAP in human monocyte assessed as reduction in all-trans isomers of LTB4 and 5-HETE formation preincubated with enzyme for 15 mins followed by A23187 addition and measured after 10 mins by ELISA assay; type: cell-based
Homo sapiens = organism: Homo sapiens; experiment: Inhibition of Leukotriene biosynthesis in human whole blood assessed as inhibition of LTB4 formation; type: functional
Rattus norvegicus [6] = experiment: In vivo inhibition of Leukotriene biosynthesis in anaphylaxis rat model assessed as reduction in LTB4 level at po dosed; type: functional
[7] = Inhibition of Leukotriene biosynthesis in human PMNL cells preincubated for 2 mins followed by calcium ionophore A23187 addition and measured after 5 mins by radioimmunoassay; type: functional, cell-based
[8] = target: T3, Polyunsaturated fatty acid 5-lipoxygenase (Rattus norvegicus, UniProt P12527); experiment: Inhibition of 5-LOX in […] rat PMNL cells assessed as reduction in 5-LO product level incubated for 3 mins by scintillation counting method; type: cell-based
T3 sequence (P12527 whole entry): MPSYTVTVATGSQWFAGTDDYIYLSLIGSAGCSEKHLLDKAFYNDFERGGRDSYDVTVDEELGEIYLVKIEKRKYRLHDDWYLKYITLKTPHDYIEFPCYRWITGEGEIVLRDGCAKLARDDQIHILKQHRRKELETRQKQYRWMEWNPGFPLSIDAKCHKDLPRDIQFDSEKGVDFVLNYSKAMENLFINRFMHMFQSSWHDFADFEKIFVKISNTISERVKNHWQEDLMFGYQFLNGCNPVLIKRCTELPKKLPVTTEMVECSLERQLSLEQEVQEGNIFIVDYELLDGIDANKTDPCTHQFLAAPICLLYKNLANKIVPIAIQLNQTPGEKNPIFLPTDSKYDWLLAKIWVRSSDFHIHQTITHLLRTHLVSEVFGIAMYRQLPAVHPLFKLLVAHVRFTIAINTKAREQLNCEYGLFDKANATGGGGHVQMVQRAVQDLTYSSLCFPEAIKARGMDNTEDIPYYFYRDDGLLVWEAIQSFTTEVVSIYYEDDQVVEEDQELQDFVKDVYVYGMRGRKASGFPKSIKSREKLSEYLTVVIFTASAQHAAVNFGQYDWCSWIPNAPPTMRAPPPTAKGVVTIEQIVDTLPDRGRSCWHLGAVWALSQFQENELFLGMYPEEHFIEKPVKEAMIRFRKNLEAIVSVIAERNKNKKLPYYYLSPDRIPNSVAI

[9] = target: T1, Arachidonate 5-lipoxygenase-activating protein; experiment: Inhibition of FLAP in human whole blood assessed as reduction in LTB4 level preincubated for 15 mins followed by calcium ionophore A23187 addition and measured after 30 min; type: tissue-based
[10] = target: T1, Arachidonate 5-lipoxygenase-activating protein; experiment: Inhibition of FLAP in human whole blood assessed as reduction of LTB4 formation preincubated with enzyme for 15 mins followed by calcimycin addition and measured after 30 mins by HTRF assay; type: tissue-based
[11] = target: T1, Arachidonate 5-lipoxygenase-activating protein; experiment: Inhibition of FLAP in human PMNL cells assessed as reduction in all-trans isomers of LTB4 and 5-HETE formation preincubated with enzyme for 15 mins followed by Ca2+ ionophore-A23187 and measured after 10 mins by HPLC analysis; type: cell-based
[12] = target: T1, Arachidonate 5-lipoxygenase-activating protein; experiment: Inhibition of FLAP in human monocyte assessed as reduction in all-trans isomers of LTB4 and 5-HETE formation preincubated with enzyme for 15 mins followed by Ca2+ ionophore-A23187 and measured after 10 mins by HPLC analysis; type: cell-based
[13] = Inhibition of Leukotriene biosynthesis in calcium ionophore A23187 stimulated human PMNL cells assessed as inhibition of LTB4 formation by cellular assay; type: functional, cell-based
Rattus norvegicus [14] = experiment: Anti-inflammatory activity against anaphylaxis in peritoneal cavity of rat model assessed as reduction in LTB4 level at po dosed by ELISA; type: functional
[15] = target: T1, Arachidonate 5-lipoxygenase-activating protein; experiment: Displacement of [125I]-L-691831 from recombinant human FLAP expressed in Sf9 insect cells incubated for 2 hr by scintillation proximity assay
[16] = target: T4, Polyunsaturated fatty acid 5-lipoxygenase (Homo sapiens, UniProt P09917); experiment: Inhibition of 5-LOX in human whole blood assessed as inhibition of LTB4 formation preincubated for 10 mins followed by calcium ionophore A23187 addition and measured after 30 min by RIA/RP--HPLC analysis; type: tissue-based
T4 sequence (P09917 whole entry): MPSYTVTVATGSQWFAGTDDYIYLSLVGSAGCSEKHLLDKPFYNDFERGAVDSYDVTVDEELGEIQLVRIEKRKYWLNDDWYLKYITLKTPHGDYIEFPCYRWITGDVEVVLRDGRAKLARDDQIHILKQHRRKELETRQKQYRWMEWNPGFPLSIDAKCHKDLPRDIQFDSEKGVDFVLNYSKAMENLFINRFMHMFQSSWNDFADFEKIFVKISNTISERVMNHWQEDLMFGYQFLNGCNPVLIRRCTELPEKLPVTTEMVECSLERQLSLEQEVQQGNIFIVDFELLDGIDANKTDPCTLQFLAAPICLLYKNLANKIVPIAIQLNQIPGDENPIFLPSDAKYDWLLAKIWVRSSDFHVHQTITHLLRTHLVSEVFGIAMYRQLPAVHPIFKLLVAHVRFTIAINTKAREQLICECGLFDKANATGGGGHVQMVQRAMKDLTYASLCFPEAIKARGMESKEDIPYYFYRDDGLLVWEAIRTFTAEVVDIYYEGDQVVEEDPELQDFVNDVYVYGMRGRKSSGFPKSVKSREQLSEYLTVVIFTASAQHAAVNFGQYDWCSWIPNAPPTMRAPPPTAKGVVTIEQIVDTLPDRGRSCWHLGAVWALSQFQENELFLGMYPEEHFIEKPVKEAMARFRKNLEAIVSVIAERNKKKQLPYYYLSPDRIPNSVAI

[17] = target: T4, Polyunsaturated fatty acid 5-lipoxygenase; experiment: Inhibition of 5-LOX in human PMNL cells assessed as inhibition of LTB4 formation preincubated for 5 mins followed by calcium ionophore A23187 addition and measured after 6 min by HPLC analysis; type: cell-based
[18] = target: T4, Polyunsaturated fatty acid 5-lipoxygenase; experiment: Inhibition of recombinant human 5-LO expressed in Escherichia coli JM109 using arachidonic acid as substrate incubated for 10 mins by HPLC analysis
[19] = target: T1, Arachidonate 5-lipoxygenase-activating protein; experiment: Inhibition of FLAP in human PMNL cells assessed as inhibition of 5-LO product LT formation preincubated for 15 mins followed by calcium ionophore A23187 addition and measured after 10 min by HPLC analysis; type: cell-based

IC50 [2]: 23 nM
SMILES: CC(CCC(=O)O)(c1ccc(OCc2ccc3ccccc3n2)cc1)c1ccc(OCc2ccc3ccccc3n2)cc1
ED50 (Rattus norvegicus [1]): 1.5 mg/kg

IC50 [3]: 4800 nM | IC50 (Prostaglandin E synthase): 200 nM | IC50 [4]: 150 nM | IC50 [5]: 40 nM
SMILES: CC(C)Cc1ccc(C(C)c2nc3ccccc3n2Cc2ccccc2Cl)cc1 (stereo not drawn)

IC50 (Homo sapiens): 870 nM
SMILES: C/C(=N\O[C@H](c1ccc(OCc2ccc3ccccc3n2)cc1)C1CCCCC1)C(=O)[O-].[Na+]
ED50 (Rattus norvegicus [6]): 0.4 mg/kg

IC50 [7]: 30 nM
SMILES: c1ccc(COCC(OCc2ccccc2)c2ccc(OCc3ccc4ccccc4n3)cc2)cc1 (stereo not drawn)

IC50 [8]: 20 nM
SMILES: O=C(O)CSC(CCCc1ccc(Cl)cc1)c1ccc(OCc2ccc3ccccc3n2)cc1 (stereo not drawn)

IC50 [9]: 66 nM
SMILES: Nc1cnc(-c2ccc(C3CCC3)c(Oc3ncccn3)c2F)cn1

IC50 [10]: 130 nM
SMILES: CNC(=O)c1ccc(F)cc1-c1nc2cc(-c3cnc(N)nc3)ccc2n1C(C)(C)C

IC50 [10]: 94 nM
SMILES: CNC(=O)c1ccc(C#N)cc1-c1nc2cc(-c3cnc(N)nc3)ccc2n1C(C)(C)C

IC50 [10]: 2700 nM
SMILES: CC(C)(C)n1c(-c2ccccc2C(=O)Nc2ccccn2)nc2cc(-c3cnc(N)nc3)ccc21

IC50 [9]: 390 nM
SMILES: Nc1cnc(-c2ccc(-c3ccccc3S(N)(=O)=O)cc2F)cn1

IC50 [11]: 7 nM | IC50 [12]: 7 nM
SMILES: O=C(O)c1noc(-c2ccc(OCc3ccc4ccccc4n3)cc2)c1-c1ccc(Cl)cc1

IC50 [13]: 12 nM
SMILES: CC(C)(/C=N/OCC(=O)O)Cc1c(SC(C)(C)C)c2cc(OCc3ccc4ccccc4n3)ccc2n1Cc1ccc(Cl)cc1
ED50 (Rattus norvegicus [14]): 0.24 mg/kg

IC50 [7]: 4 nM
SMILES: O=C(O)CSC(CCCc1ccccc1)(Cc1ccccc1)c1ccc(OCc2ccc3ccccc3n2)cc1 (stereo not drawn)

IC50 [15]: 0.7 nM
SMILES: Cc1ccn(-c2ccc(Cl)cc2-c2nc3cc(-c4cnc(N)nc4)ccc3n2C(C)(C)C)n1

IC50 [16]: 1100 nM | IC50 [17]: 42 nM
SMILES: O=C(O)[C@@H](c1ccc(OCc2ccc3ccccc3n2)cc1)C1CCCCCC1

IC50 [9]: 600 nM
SMILES: CC(C)(C)c1ccc(-c2cnc(N)cn2)c(F)c1

IC50 [13]: 21 nM
SMILES: CC(C)(CO/N=C/C(=O)O)Cc1c(SC(C)(C)C)c2cc(OCc3ccc4ccccc4n3)ccc2n1Cc1ccc(Cl)cc1
ED50 (Rattus norvegicus [14]): 0.9 mg/kg

IC50 [8]: 70 nM
SMILES: O=C(O)CSC(CCCc1ccccc1)c1ccc(OCc2ccc3ccccc3n2)cc1 (stereo not drawn) [AZD-4769]

IC50 [18]: > 10000 nM | IC50 [19]: 1700 nM
SMILES: CC1(C)Cc2c(-c3ccccc3)c(-c3ccc(Cl)cc3)c(CC(=O)O)n2C1 [LICOFELONE]

IC50 [16]: 11600 nM | IC50 (Homo sapiens): 6000 nM | IC50 [17]: 220 nM
SMILES: O=C(O)[C@@H](c1ccc(OCc2ccc3ccccc3n2)cc1)C1CCCC1 [VELIFLAPON]
ED50 (Rattus norvegicus [6]): 4 mg/kg

From ChEMBL document CHEMBL5244204, “Drug discovery approaches targeting 5-lipoxygenase-activating protein (FLAP) for inhibition of cellular leukotriene biosynthesis” (Eur J Med Chem, 2018)
